Experimental data published in patent US11912686B2 (Gilead Sciences, Inc., priority 2020, dated 2024).

Molecular target: human LPAR1 (Homo sapiens (Human), UniProt Q92633)
Experiment: LPAR1 intracellular calcium mobilization assay (antagonist mode, FLIPR)
Assay type: cell-based
Settings: CHO-K1 EDG2 cells expressing human LPAR1, LPA 18:2 at EC80 (100 nM), test compound 0.5 nM to 10 μM

Chain of human LPAR1 (Q92633 whole entry): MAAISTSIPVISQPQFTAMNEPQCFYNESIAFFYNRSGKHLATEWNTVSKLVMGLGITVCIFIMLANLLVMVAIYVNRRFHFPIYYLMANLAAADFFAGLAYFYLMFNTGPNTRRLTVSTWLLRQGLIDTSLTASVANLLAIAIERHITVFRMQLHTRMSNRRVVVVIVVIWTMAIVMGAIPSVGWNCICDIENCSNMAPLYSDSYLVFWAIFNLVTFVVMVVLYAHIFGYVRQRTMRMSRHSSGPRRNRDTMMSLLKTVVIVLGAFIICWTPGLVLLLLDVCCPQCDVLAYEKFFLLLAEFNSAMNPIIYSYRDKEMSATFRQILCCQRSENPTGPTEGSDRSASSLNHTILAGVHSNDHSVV

| Structure (SMILES) | EC50 [nM] |
| --- | --- |
| C[C@@H](OC(=O)Nc1c(-c2ccc(NC(=O)C34CC(C#N)(C3)C4)cn2)nnn1C)c1cc(F)cnc1Cl [Compound 167, (R)-1-(2-chloro-5-fluoropyridin-3-yl)ethyl (4-(5-(3-cyanobicyclo[1.1.1]pentane-1-carboxamido)pyridin-2-yl)-1-methyl-1H-1,2,3-triazol-5-yl)carbamate] | 99.4 |
| C[C@@H](OC(=O)Nc1c(-c2ccc(NC(=O)C3(C#N)CC3)cn2)nnn1C)c1cc(F)cnc1Cl [Compound 168, (R)-1-(2-chloro-5-fluoropyridin-3-yl)ethyl (4-(5-(1-cyanocyclopropane-1-carboxamido)pyridin-2-yl)-1-methyl-1H-1,2,3-triazol-5-yl)carbamate] | 16.2 |
| C[C@@H](OC(=O)Nc1c(-c2ccc(NC(=O)[C@@H]3C[C@H]3F)cn2)nnn1C)c1cccnc1F [Compound 169, (R)-1-(2-fluoropyridin-3-yl)ethyl (4-(5-((1S,2R)-2-fluorocyclopropane-1-carboxamido)pyridin-2-yl)-1-methyl-1H-1,2,3-triazol-5-yl)carbamate] | 191 |
| C[C@@H](OC(=O)Nc1c(-c2ccc(NC(=O)C34CC(C(F)(F)F)(C3)C4)cn2)nnn1C)c1cccnc1F [Compound 170, (R)-1-(2-fluoropyridin-3-yl)ethyl (1-methyl-4-(5-(3-(trifluoromethyl)bicyclo[1.1.1]pentane-1-carboxamido)pyridin-2-yl)-1H-1,2,3-triazol-5-yl)carbamate] | 31.8 |
| C[C@@H](OC(=O)Nc1c(-c2ccc(NC(=O)C3CC(F)(F)C3)cn2)nnn1C)c1cccnc1F [Compound 171, (R)-1-(2-fluoropyridin-3-yl)ethyl (4-(5-(3,3-difluorocyclobutane-1-carboxamido)pyridin-2-yl)-1-methyl-1H-1,2,3-triazol-5-yl)carbamate] | 140 |
| C[C@@H](OC(=O)Nc1c(-c2ccc(NC(=O)C3(C#N)CC3)cn2)nnn1C)c1cccnc1F [Compound 172, (R)-1-(2-fluoropyridin-3-yl)ethyl (4-(5-(1-cyanocyclopropane-1-carboxamido)pyridin-2-yl)-1-methyl-1H-1,2,3-triazol-5-yl)carbamate] | 236 |
| C[C@@H](OC(=O)Nc1c(-c2ccc(NC(=O)C34CC(F)(C3)C4)cn2)nnn1C)c1cccnc1F [Compound 173, (R)-1-(2-fluoropyridin-3-yl)ethyl (4-(5-(3-fluorobicyclo[1.1.1]pentane-1-carboxamido)pyridin-2-yl)-1-methyl-1H-1,2,3-triazol-5-yl)carbamate] | 181 |
| C[C@@H](OC(=O)Nc1c(-c2ccc(NC(=O)C34CC(C#N)(C3)C4)cn2)nnn1C)c1cccnc1F [Compound 174, (R)-1-(2-fluoropyridin-3-yl)ethyl (4-(5-(3-cyanobicyclo[1.1.1]pentane-1-carboxamido)pyridin-2-yl)-1-methyl-1H-1,2,3-triazol-5-yl)carbamate] | 107 |
| Cc1ncc(F)cc1[C@@H](C)OC(=O)Nc1c(-c2ccc(NC(=O)C3CC(F)(F)C3)cn2)nnn1C [Compound 175, (R)-1-(5-fluoro-2-methylpyridin-3-yl)ethyl (4-(5-(3,3-difluorocyclobutane-1-carboxamido)pyridin-2-yl)-1-methyl-1H-1,2,3-triazol-5-yl)carbamate] | 35.4 |
| Cc1ncc(F)cc1[C@@H](C)OC(=O)Nc1c(-c2ccc(NC(=O)[C@@H]3C[C@H]3F)cn2)nnn1C [Compound 176, (R)-1-(5-fluoro-2-methylpyridin-3-yl)ethyl (4-(5-((1S,2R)-2-fluorocyclopropane-1-carboxamido)pyridin-2-yl)-1-methyl-1H-1,2,3-triazol-5-yl)carbamate] | 253 |
| Cc1ncc(F)cc1[C@@H](C)OC(=O)Nc1c(-c2ccc(NC(=O)C3(C#N)CC3)cn2)nnn1C [Compound 177, (R)-1-(5-fluoro-2-methylpyridin-3-yl)ethyl (4-(5-(1-cyanocyclopropane-1-carboxamido)pyridin-2-yl)-1-methyl-1H-1,2,3-triazol-5-yl)carbamate] | 48.3 |
| Cc1ncc(F)cc1[C@@H](C)OC(=O)Nc1c(-c2ccc(NC(=O)C34CC(C#N)(C3)C4)cn2)nnn1C [Compound 178, (R)-1-(5-fluoro-2-methylpyridin-3-yl)ethyl (4-(5-(3-cyanobicyclo[1.1.1]pentane-1-carboxamido)pyridin-2-yl)-1-methyl-1H-1,2,3-triazol-5-yl)carbamate] | 140 |
| Cc1ncc(F)cc1[C@@H](C)OC(=O)Nc1c(-c2ccc(NC(=O)C34CC(F)(C3)C4)cn2)nnn1C [Compound 179, (R)-1-(5-fluoro-2-methylpyridin-3-yl)ethyl (4-(5-(3-fluorobicyclo[1.1.1]pentane-1-carboxamido)pyridin-2-yl)-1-methyl-1H-1,2,3-triazol-5-yl)carbamate] | 46.5 |
| Cc1ncc(F)cc1[C@@H](C)OC(=O)Nc1c(-c2ccc(NC(=O)[C@@H]3CC3(F)F)cn2)nnn1C [Compound 180, (R)-1-(5-fluoro-2-methylpyridin-3-yl)ethyl (4-(5-((S)-2,2-difluorocyclopropane-1-carboxamido)pyridin-2-yl)-1-methyl-1H-1,2,3-triazol-5-yl)carbamate] | 123 |
| CC(OC(=O)Nc1c(-c2ccc(NC(=O)C3(C#N)CC3)cn2)nnn1C)c1ccc(F)nc1Cl (centres unmarked) [Compound 181, 1-(2-chloro-6-fluoropyridin-3-yl)ethyl (4-(5-(1-cyanocyclopropane-1-carboxamido)pyridin-2-yl)-1-methyl-1H-1,2,3-triazol-5-yl)carbamate] | 428 |
| CC(=O)Nc1ccc(-c2nnn(C)c2NC(=O)OC(C)c2ccc(F)nc2Cl)nc1 (centres unmarked) [Compound 182, 1-(2-chloro-6-fluoropyridin-3-yl)ethyl (4-(5-acetamidopyridin-2-yl)-1-methyl-1H-1,2,3-triazol-5-yl)carbamate] | 2050 |
| C[C@@H](OC(=O)Nc1c(-c2cc(F)c(NC(=O)C3(C#N)CC3)cn2)nnn1C)c1cccnc1Cl [Compound 183, (R)-1-(2-chloropyridin-3-yl)ethyl (4-(5-(1-cyanocyclopropane-1-carboxamido)-4-fluoropyridin-2-yl)-1-methyl-1H-1,2,3-triazol-5-yl)carbamate] | 1060 |
| C[C@@H](OC(=O)Nc1c(-c2cc(F)c(NC(=O)C34CC(C#N)(C3)C4)cn2)nnn1C)c1cccnc1Cl [Compound 184, (R)-1-(2-chloropyridin-3-yl)ethyl (4-(5-(3-cyanobicyclo[1.1.1]pentane-1-carboxamido)-4-fluoropyridin-2-yl)-1-methyl-1H-1,2,3-triazol-5-yl)carbamate] | 81.8 |
| C[C@@H](OC(=O)Nc1c(-c2ccc(NC(=O)C3(C#N)CC(F)(F)C3)cn2)nnn1C)c1cccnc1Cl [Compound 186, (R)-1-(2-chloropyridin-3-yl)ethyl (4-(5-(1-cyano-3,3-difluorocyclobutane-1-carboxamido)pyridin-2-yl)-1-methyl-1H-1,2,3-triazol-5-yl)carbamate] | 100 |
| CNC(=O)Nc1ccc(-c2nnn(C)c2NC(=O)O[C@H](CF)c2cccc(F)c2)nc1 [Compound 187, (S)-2-fluoro-1-(3-fluorophenyl)ethyl (1-methyl-4-(5-(3-methylureido)pyridin-2-yl)-1H-1,2,3-triazol-5-yl)carbamate] | 1240 |
